Assay results: ChEMBL document CHEMBL4507276 (2021)

Assays:
[1] = molecular target: Cyclin-dependent kinase 9 (Homo sapiens) (UniProt P50750); details: Compound concentration 1000.0 nM
[2] = molecular target: Serine/threonine-protein kinase Nek7 (Homo sapiens) (UniProt Q8TDX7); details: Compound concentration 1000.0 nM
[3] = molecular target: SRSF protein kinase 1 (Homo sapiens) (UniProt Q96SB4); details: Compound concentration 1000.0 nM
[4] = molecular target: RAC-beta serine/threonine-protein kinase (Homo sapiens) (UniProt P31751); details: Compound concentration 1000.0 nM
RAC-beta serine/threonine-protein kinase (Homo sapiens), sequence (P31751 whole entry): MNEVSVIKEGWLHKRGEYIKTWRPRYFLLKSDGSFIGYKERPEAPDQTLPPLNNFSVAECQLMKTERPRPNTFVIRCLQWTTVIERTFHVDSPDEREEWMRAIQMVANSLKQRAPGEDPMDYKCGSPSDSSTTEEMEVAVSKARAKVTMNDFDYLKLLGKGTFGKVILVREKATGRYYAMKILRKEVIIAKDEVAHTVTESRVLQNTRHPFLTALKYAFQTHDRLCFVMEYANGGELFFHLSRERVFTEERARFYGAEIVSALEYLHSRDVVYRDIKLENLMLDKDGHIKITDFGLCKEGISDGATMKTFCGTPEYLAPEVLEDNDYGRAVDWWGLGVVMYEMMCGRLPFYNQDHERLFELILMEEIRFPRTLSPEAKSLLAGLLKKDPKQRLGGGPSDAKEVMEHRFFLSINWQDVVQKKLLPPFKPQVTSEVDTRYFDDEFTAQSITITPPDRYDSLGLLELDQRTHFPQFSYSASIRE

[5] = tested on: Leucine-rich repeat serine/threonine-protein kinase 2 (Homo sapiens), Q5S007 [G2019S]; details: Compound concentration 1000.0 nM
[6] = molecular target: Sodium-dependent dopamine transporter (Homo sapiens, UniProt Q01959); details: Compound concentration 10.0 uM
Sodium-dependent dopamine transporter, sequence (Q01959 whole entry): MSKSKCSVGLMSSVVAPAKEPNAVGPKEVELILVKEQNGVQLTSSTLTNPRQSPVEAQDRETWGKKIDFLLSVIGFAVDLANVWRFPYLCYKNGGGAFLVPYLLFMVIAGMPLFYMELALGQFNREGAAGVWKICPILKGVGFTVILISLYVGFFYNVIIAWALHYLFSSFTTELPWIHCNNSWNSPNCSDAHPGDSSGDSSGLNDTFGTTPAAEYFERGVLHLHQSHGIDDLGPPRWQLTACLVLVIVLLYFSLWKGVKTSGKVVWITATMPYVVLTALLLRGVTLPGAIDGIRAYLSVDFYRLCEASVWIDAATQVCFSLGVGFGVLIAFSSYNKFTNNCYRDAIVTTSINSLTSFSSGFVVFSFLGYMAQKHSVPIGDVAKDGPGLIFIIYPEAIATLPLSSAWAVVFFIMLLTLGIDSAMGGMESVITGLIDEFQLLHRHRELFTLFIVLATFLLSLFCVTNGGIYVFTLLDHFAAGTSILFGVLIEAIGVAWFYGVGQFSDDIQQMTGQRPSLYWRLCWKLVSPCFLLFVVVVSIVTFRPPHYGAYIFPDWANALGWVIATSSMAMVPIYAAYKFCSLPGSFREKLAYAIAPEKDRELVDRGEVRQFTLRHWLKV

[7] = molecular target: Calcium/calmodulin-dependent protein kinase type 1B (Homo sapiens) (UniProt Q6P2M8); details: Compound concentration 1000.0 nM
[8] = molecular target: Serine/threonine-protein kinase 24 (Homo sapiens) (UniProt Q9Y6E0); details: Compound concentration 1000.0 nM
[9] = molecular target: T1, NUAK family SNF1-like kinase 1 (Homo sapiens) (UniProt O60285); details: Compound concentration 1000.0 nM
T1 sequence (whole entry): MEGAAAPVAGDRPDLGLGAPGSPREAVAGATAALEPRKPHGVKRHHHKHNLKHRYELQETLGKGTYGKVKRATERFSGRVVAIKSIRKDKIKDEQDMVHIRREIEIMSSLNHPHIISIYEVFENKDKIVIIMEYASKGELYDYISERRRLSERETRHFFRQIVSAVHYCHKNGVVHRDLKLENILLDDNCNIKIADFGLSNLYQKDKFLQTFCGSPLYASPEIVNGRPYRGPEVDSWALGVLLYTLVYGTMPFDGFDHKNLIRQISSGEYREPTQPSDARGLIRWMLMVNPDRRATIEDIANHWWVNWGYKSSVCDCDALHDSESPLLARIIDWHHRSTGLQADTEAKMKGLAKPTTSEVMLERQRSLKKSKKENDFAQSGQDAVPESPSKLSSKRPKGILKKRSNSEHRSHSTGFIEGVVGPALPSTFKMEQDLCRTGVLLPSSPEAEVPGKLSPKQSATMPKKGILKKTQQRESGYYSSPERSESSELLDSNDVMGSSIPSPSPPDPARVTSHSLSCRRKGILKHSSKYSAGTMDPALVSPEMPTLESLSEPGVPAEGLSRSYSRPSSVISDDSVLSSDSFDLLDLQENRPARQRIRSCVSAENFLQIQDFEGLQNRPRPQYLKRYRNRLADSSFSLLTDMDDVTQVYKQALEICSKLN

[10] = molecular target: Wee1-like protein kinase (Homo sapiens) (UniProt P30291); details: Compound concentration 1000.0 nM
[11] = molecular target: Serine/threonine-protein kinase Nek10 (Homo sapiens) (UniProt Q6ZWH5); details: Compound concentration 1000.0 nM
[12] = tested on: Phosphatidylinositol 4,5-bisphosphate 3-kinase catalytic subunit alpha isoform (Homo sapiens), P42336 [H1047L]; details: Compound concentration 1000.0 nM
Phosphatidylinositol 4,5-bisphosphate 3-kinase catalytic subunit alpha isoform (Homo sapiens), P42336 [H1047L], sequence (P42336 whole entry H1047L, canonical isoform): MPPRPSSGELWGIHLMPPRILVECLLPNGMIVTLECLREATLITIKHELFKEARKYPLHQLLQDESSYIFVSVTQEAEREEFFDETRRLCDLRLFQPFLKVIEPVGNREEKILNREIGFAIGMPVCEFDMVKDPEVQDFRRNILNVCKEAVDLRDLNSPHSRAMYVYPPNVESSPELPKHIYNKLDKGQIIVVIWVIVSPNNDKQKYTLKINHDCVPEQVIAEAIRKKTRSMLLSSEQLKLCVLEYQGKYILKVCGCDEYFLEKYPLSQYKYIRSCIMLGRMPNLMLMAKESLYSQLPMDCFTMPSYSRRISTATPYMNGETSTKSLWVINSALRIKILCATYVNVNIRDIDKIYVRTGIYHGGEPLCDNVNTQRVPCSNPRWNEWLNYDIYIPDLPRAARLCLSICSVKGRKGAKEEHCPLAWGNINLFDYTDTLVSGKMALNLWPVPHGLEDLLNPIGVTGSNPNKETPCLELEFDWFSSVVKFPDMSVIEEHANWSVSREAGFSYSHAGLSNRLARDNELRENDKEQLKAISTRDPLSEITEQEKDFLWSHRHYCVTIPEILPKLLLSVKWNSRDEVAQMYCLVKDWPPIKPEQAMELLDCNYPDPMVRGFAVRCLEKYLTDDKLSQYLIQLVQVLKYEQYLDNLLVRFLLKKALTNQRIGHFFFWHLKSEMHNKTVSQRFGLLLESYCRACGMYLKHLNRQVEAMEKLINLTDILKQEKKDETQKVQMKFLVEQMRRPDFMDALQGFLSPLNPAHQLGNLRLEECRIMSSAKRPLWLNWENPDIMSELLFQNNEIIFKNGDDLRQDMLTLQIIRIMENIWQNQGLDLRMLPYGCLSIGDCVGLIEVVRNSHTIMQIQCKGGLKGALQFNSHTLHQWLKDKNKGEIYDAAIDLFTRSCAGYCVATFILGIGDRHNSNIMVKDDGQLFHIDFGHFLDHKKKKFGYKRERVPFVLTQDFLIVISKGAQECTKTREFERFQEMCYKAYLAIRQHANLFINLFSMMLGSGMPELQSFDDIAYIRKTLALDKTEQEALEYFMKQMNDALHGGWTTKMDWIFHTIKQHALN

[13] = molecular target: Dual specificity mitogen-activated protein kinase kinase 4 (Homo sapiens) (UniProt P45985); details: Compound concentration 1000.0 nM
[14] = molecular target: T2, Myotonin-protein kinase (Homo sapiens) (UniProt Q09013); details: Compound concentration 1000.0 nM
T2 sequence (whole entry): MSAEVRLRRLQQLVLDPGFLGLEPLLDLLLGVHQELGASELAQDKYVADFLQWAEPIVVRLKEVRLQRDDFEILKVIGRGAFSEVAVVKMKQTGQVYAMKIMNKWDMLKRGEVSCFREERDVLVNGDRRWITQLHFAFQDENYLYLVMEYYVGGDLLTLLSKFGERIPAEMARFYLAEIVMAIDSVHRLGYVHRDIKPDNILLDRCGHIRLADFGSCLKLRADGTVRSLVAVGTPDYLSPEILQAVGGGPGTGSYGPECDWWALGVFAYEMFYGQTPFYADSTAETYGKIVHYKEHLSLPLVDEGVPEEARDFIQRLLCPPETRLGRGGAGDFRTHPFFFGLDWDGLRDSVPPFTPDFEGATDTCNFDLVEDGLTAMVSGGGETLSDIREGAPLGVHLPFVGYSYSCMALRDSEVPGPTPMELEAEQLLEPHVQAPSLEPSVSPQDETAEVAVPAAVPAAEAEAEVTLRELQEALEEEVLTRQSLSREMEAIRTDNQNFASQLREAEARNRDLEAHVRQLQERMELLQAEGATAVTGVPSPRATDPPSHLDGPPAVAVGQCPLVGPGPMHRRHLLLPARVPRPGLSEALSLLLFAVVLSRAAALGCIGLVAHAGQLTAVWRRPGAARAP

[15] = molecular target: Casein kinase II subunit alpha' (Homo sapiens) (UniProt P19784); details: Compound concentration 1000.0 nM
Casein kinase II subunit alpha' (Homo sapiens), sequence (P19784 whole entry, looked up): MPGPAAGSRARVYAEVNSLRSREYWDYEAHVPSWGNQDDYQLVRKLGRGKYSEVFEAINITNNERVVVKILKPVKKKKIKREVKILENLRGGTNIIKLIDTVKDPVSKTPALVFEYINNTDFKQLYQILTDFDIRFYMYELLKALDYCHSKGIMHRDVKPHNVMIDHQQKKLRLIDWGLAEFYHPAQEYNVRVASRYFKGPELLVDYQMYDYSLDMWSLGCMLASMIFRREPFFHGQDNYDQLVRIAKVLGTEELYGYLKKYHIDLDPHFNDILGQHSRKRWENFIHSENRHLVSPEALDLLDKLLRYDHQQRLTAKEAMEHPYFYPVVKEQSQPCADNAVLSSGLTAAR

[16] = molecular target: Serine/threonine-protein kinase B-raf (Homo sapiens) (UniProt P15056); details: Compound concentration 1000.0 nM
Serine/threonine-protein kinase B-raf (Homo sapiens), sequence (P15056 whole entry): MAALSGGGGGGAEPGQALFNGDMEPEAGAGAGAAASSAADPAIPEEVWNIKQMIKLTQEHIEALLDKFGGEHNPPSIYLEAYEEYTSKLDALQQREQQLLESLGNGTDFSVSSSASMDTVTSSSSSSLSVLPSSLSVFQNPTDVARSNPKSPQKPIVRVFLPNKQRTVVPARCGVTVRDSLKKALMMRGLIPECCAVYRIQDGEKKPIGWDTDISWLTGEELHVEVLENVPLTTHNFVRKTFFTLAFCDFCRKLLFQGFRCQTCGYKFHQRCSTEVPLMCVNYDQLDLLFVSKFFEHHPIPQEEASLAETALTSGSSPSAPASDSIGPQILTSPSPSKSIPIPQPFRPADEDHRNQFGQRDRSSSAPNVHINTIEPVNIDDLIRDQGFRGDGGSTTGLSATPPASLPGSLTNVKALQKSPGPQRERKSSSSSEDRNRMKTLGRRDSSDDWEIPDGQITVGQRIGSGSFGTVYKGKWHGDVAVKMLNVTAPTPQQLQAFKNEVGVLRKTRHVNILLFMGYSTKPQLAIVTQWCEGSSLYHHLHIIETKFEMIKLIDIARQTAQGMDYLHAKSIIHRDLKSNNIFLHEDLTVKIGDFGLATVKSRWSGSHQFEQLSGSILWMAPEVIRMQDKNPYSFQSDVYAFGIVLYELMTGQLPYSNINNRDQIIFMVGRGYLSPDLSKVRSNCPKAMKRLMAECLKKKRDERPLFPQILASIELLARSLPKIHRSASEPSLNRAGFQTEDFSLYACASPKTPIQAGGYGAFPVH

[17] = molecular target: Mitogen-activated protein kinase 3 (Homo sapiens) (UniProt P27361); details: Compound concentration 1000.0 nM
[18] = molecular target: Serine/threonine-protein kinase WNK2 (Homo sapiens) (UniProt Q9Y3S1); details: Compound concentration 1000.0 nM
[19] = molecular target: Activated CDC42 kinase 1 (Homo sapiens) (UniProt Q07912); details: Compound concentration 1000.0 nM
Activated CDC42 kinase 1 (Homo sapiens), sequence (Q07912 whole entry, looked up): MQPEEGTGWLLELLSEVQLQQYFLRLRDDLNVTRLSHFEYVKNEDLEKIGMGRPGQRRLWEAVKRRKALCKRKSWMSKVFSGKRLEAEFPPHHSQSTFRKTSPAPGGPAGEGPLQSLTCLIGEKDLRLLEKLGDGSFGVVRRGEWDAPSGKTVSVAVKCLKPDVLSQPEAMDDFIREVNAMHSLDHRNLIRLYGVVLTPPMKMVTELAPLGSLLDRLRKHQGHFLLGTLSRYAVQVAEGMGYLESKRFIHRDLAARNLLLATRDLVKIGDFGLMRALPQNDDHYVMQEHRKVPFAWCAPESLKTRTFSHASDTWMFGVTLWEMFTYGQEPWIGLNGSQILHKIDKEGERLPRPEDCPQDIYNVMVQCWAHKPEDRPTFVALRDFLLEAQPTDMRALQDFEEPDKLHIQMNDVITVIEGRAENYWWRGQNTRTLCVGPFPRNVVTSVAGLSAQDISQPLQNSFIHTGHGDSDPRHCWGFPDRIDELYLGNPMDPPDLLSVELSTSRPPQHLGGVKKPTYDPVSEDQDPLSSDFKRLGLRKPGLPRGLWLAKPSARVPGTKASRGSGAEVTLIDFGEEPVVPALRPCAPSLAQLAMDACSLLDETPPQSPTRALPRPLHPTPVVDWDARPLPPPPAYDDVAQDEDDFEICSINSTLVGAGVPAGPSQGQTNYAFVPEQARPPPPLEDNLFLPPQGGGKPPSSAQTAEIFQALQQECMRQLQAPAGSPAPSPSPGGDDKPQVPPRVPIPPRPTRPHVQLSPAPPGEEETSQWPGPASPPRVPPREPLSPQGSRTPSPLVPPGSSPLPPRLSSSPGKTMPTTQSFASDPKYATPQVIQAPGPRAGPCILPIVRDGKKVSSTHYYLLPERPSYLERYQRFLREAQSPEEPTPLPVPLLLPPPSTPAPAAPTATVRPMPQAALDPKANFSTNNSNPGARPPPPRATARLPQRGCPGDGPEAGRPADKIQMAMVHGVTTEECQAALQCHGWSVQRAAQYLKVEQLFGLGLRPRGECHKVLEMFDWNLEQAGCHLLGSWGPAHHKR

[20] = molecular target: Dual specificity mitogen-activated protein kinase kinase 7 (Homo sapiens) (UniProt O14733); details: Compound concentration 1000.0 nM

Cyclin-dependent kinase 9 (Homo sapiens), sequence (P50750 whole entry): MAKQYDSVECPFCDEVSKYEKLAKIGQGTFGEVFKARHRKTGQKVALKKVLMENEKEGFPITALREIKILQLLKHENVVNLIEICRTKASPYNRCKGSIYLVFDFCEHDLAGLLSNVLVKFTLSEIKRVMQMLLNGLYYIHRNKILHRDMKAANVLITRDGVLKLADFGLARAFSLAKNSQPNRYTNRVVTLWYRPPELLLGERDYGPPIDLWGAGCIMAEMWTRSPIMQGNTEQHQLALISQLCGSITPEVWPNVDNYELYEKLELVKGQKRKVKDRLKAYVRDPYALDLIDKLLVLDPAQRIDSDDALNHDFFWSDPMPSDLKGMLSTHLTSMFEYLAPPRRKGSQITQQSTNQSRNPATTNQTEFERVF
Serine/threonine-protein kinase Nek7 (Homo sapiens), sequence (Q8TDX7 whole entry, looked up): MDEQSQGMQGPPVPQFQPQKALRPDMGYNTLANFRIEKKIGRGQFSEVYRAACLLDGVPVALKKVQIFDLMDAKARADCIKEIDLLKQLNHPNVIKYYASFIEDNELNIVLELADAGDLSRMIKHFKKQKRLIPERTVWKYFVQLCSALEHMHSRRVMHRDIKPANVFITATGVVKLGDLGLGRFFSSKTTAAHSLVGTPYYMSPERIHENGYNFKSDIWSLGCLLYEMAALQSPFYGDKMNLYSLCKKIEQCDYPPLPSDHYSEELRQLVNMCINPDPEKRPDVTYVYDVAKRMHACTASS

Work on CN(C)C(=O)Cn1cc(-c2nc(C3(c4ccc(-c5cnc(N)nc5)cc4)CC3)no2)cn1 [BI 0153] yielded a residual activity [1] of 100%, a residual activity [2] of 100% and a residual activity [3] of 93%. For the same molecule, the residual activity [4] was 100%, the residual activity [5] was 100% and the inhibition [6] was 52.4%. For the same molecule, the residual activity [7] was 77%, the residual activity [8] was 100% and the residual activity [9] was 82%. The residual activity [10] was 87%, the residual activity [11] was 99% and the residual activity [12] was 73%. It also gave a residual activity [13] of 93%, a residual activity [14] of 82% and a residual activity [15] of 100%. The residual activity [16] was 88%, the residual activity [17] was 79% and the residual activity [18] was 67%. It also gave a residual activity [19] of 96% and a residual activity [20] of 87%.
Work on CN(C)C(=O)Cn1cc(-c2nc([C@@](C)(c3ccc(-c4cnc(N)nc4)cc3)C3CC3)no2)cn1 [BI 665915] yielded a residual activity [1] of 96%, a residual activity [2] of 90% and a residual activity [3] of 100%. For the same molecule, the residual activity [4] was 84%, the residual activity [5] was 100% and the inhibition [6] was 60.7%. It also gave a residual activity [7] of 88%, a residual activity [8] of 100% and a residual activity [9] of 100%. The residual activity [10] was 94%, the residual activity [11] was 97% and the residual activity [12] was 100%. The residual activity [13] was 100%, the residual activity [14] was 100% and the residual activity [15] was 90%. It also gave a residual activity [16] of 82%, a residual activity [17] of 100% and a residual activity [18] of 100%. The residual activity [19] was 91% and the residual activity [20] was 94%.
